What all share (experiment): cAMP accumulation assay, GCGR WT, mutant or modified constructs
Format in all cases: cell-based
Common to all, as to design: V5 (C); 6×His (C); expressed in transfected cells; host or cells: HEK293T

Assay [1] concerns the target GCGR (Homo sapiens, UniProt P47871, D195A/Q142A/R199A). To be noted: HEK-293T, GCGR Q142A/D195A/R199A; HEK293T. As to the method:
(§1) Human embryonic kidney 293 cells containing SV40 large T-antigen (HEK293T) were cultured in DMEM (Gibco) supplemented with 10% (v/v) fetal bovine serum (FBS, Gibco), 1 mM sodium pyruvate (Gibco) and 100 units/mL penicillin and 100 μg/mL streptomycin at 37 °C in 5% CO2. Chinese hamster ovary (CHO-K1) cells were cultured in F-12 (Gibco) containing 10% FBS, 100 units/mL penicillin and 100 μg/mL streptomycin at 37 °C in 5% CO2. For cAMP and receptor expression assays, HEK293T cells were seeded into 6-well cell culture plates at a density of 7 × 10^5 cells per well. After overnight incubation, cells were transfected with GIPR, GLP-1R or GCGR construct using Lipofectamine 2000 or Lipofectamine 3000 transfection reagent (Invitrogen). For whole-cell binding assay, CHO-K1 cells were seeded into 96-well fibronectin-treated cell culture plates at a density of 3 × 10^4 cells per well. After overnight incubation, cells were transfected with GIPR, GLP-1R or GCGR construct using Lipofectamine 2000 transfection reagent (Invitrogen). Following 24 h culturing, the transfected cells were ready for use. […]
(§2) For GIPR, GLP-1R and GCGR, multi-targeting agonist stimulated cAMP accumulation was measured by a LANCE Ultra cAMP kit (PerkinElmer). After 24 h culture, the transfected cells were seeded into 384-well microtiter plates at a density of 3,000 cells per well in HBSS supplemented with 5 mM HEPES, 0.1% (w/v) BSA or 0.1% (w/v) casein and 0.5 mM 3-isobutyl-1-methylxanthine. The cells were stimulated with different concentrations of peptide agonists for 40 min at RT. Eu-cAMP tracer and ULight^TM-anti-cAMP were then diluted by cAMP detection buffer and added to the plates separately to terminate the reaction. Plates were incubated at RT for 1 h and the fluorescence intensity measured at 620 nm and […] by an EnVision multilabel plate reader (PerkinElmer).

Assay [2] addresses GCGR (Homo sapiens, UniProt P47871, Y138A). To be noted: HEK-293T, GCGR Y138A; HEK293T. As to the method:
as §1, §2

In assay [3] the target is GCGR (Homo sapiens, UniProt P47871, R199A). To be noted: GCGR R199A, HEK293T. The procedure: as §1, §2
Chain of GCGR (Homo sapiens, UniProt P47871, R199A) (P47871 26-477 R199A): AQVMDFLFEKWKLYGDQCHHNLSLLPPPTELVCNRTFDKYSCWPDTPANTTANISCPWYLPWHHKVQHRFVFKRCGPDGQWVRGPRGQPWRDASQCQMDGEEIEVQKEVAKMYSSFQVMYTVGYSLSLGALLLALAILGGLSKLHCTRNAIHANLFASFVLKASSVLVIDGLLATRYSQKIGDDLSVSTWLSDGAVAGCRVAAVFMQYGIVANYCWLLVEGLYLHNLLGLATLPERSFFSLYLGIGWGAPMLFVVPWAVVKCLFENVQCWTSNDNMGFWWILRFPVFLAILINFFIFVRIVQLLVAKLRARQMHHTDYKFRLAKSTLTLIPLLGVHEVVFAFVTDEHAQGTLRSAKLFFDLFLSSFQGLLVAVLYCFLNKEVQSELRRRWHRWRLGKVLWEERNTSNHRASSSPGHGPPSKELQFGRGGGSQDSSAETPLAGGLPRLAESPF
For assay [4], the target named is GCGR (Homo sapiens, UniProt P47871, Y202A). To be noted: HEK-293T, GCGR Y202A; HEK293T. As to the method:
as §1, §2

Assay [5] has as its target GCGR (Homo sapiens, UniProt P47871, Q131A). The note with it: GCGR Q131A, HEK293T. The procedure:
as §1, §2

The target in assay [6] is GCGR (Homo sapiens, UniProt P47871, D195A). The note with it: HEK-293T, GCGR D195A; HEK293T. As to the method:
as §1, §2

Where [7] appears, read: read-out: cAMP pEC50 (converted).

Chain of GCGR (Homo sapiens, UniProt P47871, Q131A) (P47871 26-477 Q131A): as the sequence (P47871 26-477 R199A) above, with Q106A, A174R counted along it
Chain of GCGR (Homo sapiens, UniProt P47871, Y202A) (P47871 26-477 Y202A): as the sequence (P47871 26-477 R199A) above, with A174R, Y177A counted along it
Chain of GCGR (Homo sapiens, UniProt P47871, D195A) (P47871 26-477 D195A): as the sequence (P47871 26-477 R199A) above, with D170A, A174R counted along it
Chain of GCGR (Homo sapiens, UniProt P47871, D195A/Q142A/R199A) (P47871 26-477 Q142A/D195A/R199A): as the sequence (P47871 26-477 R199A) above, with Q117A, D170A counted along it
Chain of GCGR (Homo sapiens, UniProt P47871, Y138A) (P47871 26-477 Y138A): as the sequence (P47871 26-477 R199A) above, with Y113A, A174R counted along it

Consider `CCCCCCCCCCCCCCCC(=O)N[C@@H](CCC(=O)NCCCC[C@H](NC(=O)[C@H](CC(=O)O)NC(=O)[C@H](CO)NC(=O)[C@@H](NC(=O)[C@H](Cc1ccccc1)NC(=O)[C@@H](NC(=O)CNC(=O)[C@H](CCC(N)=O)NC(=O)C(C)(C)NC(=O)[C@@H](N)Cc1c[nH]cn1)[C@@H](C)O)[C@@H](C)O)C(=O)N[C@@H](CO)C(=O)N[C@@H](CCCCN)C(=O)N[C@@H](Cc1ccc(O)cc1)C(=O)N[C@@H](CC(C)C)C(=O)N[C@@H](CC(=O)O)C(=O)N[C@@H](CCC(=O)O)C(=O)N[C@@H](CCCNC(=N)N)C(=O)N[C@@H](C)C(=O)N[C@@H](C)C(=O)N[C@@H](CCC(N)=O)C(=O)N[C@@H](CC(=O)O)C(=O)N[C@@H](Cc1ccccc1)C(=O)N[C@H](C(=O)N[C@@H](CCC(N)=O)C(=O)N[C@@H](Cc1c[nH]c2ccccc12)C(=O)N[C@@H](CC(C)C)C(=O)N[C@@H](CC(C)C)C(=O)N[C@@H](CC(=O)O)C(=O)NCC(=O)NCC(=O)N1CCC[C@H]1C(=O)N[C@@H](CO)C(=O)N[C@@H](CO)C(=O)NCC(=O)N[C@@H](C)C(=O)N1CCC[C@H]1C(=O)N1CCC[C@H]1C(=O)N1CCC[C@H]1C(=O)N[C@@H](CO)C(N)=O)C(C)C)C(=O)O` [Peptide 20], for which the maximum response (Emax) worked out at 100 ± 2.37% in assay [1]; 101 ± 2.39% in assay [2]; 99.7 ± 1.47% in assay [3] (HEK-293T); 103 ± 2.48% in assay [4]; 101 ± 1.59% in assay [5] (HEK-293T); 102 ± 2.1% in assay [6]. Besides, the EC50 in assay [3] (setting [7]) was 0.0129 nM; in assay [5] (setting [7]) it was 0.0282 nM.

The record behind these values is publication PMC8881610 (Nature Communications, 2022).
